Literature values as cited in patent US20100173012A1 (priority 2008, published 2010).

System: Fusarium graminearum
Settings: previous work of the inventors

| SMILES | use to reduce ascospore discharge in F. graminearum |
| --- | --- |
| COc1ccc(CCN(C)CCCC(C#N)(c2ccc(OC)c(OC)c2)C(C)C)cc1OC (stereo not shown) [verapamil] | successfully used |
| CCN(CC)CCCCCCCCOC(=O)c1cc(OC)c(OC)c(OC)c1 [TMB8] | successfully used |
| O=C(O)CN(CC(=O)O)c1ccccc1OCCOc1ccccc1N(CC(=O)O)CC(=O)O [BAPTA] | successfully used |
| Cc1ccc(S(=O)(=O)NC(=O)NN2CCCCCC2)cc1 [Tolazamide] | successfully used |
| OCC(O)CO [glycerol] | successfully used |
| COc1ccc(Cl)cc1C(=O)NCCc1ccc(S(=O)(=O)NC(=O)NC2CCCCC2)cc1 [glyburide] | successfully used |
| OC[C@@H](O)[C@@H](O)[C@H](O)[C@H](O)CO [mannitol] | successfully used |
